The values below come from paper doi:10.1101/2025.06.24.661388v1 (biorxiv, 2025).

Each structure is given as a SMILES string.

Assay [1] addresses T1, monoacylglycerol lipase (MAGL), mouse brain (Mus musculus, UniProt O35678).
T1 sequence (O35678 1-303): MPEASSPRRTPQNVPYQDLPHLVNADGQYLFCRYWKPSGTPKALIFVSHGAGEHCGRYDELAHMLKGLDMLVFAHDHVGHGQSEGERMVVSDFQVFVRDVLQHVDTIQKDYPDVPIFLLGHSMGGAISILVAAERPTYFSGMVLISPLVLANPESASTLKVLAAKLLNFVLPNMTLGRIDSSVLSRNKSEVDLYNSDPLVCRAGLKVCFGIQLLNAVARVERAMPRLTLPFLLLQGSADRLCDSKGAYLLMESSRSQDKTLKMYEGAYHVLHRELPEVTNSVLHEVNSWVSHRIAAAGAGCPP
In words: displacement autoradiography on brain sections. Particulars: unlabelled T-401 against […] [3H]T-401; hippocampus and cerebral cortex.

Assay [2] has as its target T2, monoacylglycerol lipase (MAGL), human temporal cortex (Homo sapiens, UniProt Q99685).
T2 sequence (Q99685 1-303): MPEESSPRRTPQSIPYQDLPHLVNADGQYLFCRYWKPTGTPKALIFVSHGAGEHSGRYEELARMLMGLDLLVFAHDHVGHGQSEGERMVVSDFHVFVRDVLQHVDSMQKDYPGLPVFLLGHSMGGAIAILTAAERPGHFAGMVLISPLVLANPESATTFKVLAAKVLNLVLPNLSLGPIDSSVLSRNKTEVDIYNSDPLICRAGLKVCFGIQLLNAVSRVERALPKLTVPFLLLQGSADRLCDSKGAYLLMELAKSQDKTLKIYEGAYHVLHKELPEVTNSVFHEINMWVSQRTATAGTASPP
In words: saturation autoradiography on brain sections. Particulars: labelled compound, [3H]T-401 […] min, room temperature.

Assay [3] has as its target T1, monoacylglycerol lipase (MAGL), mouse brain. Put plainly: saturation autoradiography on brain sections. Particulars: labelled compound; [3H]T-401 […]; […] min; cerebral cortex.
Assay [4] deals with T2, monoacylglycerol lipase (MAGL), human temporal cortex. Put plainly: displacement autoradiography on brain sections. The settings on record: unlabelled T-401 against […] [3H]T-401, room temperature.

The IC50 is the concentration at which inhibition is half-maximal. A high value points to weaker potency. In general, Kd refers to the concentration at which binding is half-saturated. Take `Cc1ccnc(F)c1-c1cccc(N2C[C@H](N3CCN(C(=O)c4nccs4)CC3)CC2=O)c1` [T-401, (R)-1-(3-(2-fluoro-4-methylpyridin-3-yl)phenyl)-4-(4-(thiazole-2-carbonyl)piperazin-1-yl)pyrrolidine-2-one]: the IC50 in assay [1] is 41 nM; in assay [4] it was 32 nM. Besides, the results for the Kd in assay [2] and in assay [3] were 4.7 ± 0.8 nM and 5.8 nM, respectively.
